Data published in patent US20250099448A1, “HETEROCYCLIC COMPOUNDS” (Hoffmann-La Roche Inc., priority 2022, published 2025).
pIC50: −log10 of the molar value.

Target: T1, MAGL protein (Homo sapiens, UniProt Q99685)
T1 sequence (Q99685 1-303): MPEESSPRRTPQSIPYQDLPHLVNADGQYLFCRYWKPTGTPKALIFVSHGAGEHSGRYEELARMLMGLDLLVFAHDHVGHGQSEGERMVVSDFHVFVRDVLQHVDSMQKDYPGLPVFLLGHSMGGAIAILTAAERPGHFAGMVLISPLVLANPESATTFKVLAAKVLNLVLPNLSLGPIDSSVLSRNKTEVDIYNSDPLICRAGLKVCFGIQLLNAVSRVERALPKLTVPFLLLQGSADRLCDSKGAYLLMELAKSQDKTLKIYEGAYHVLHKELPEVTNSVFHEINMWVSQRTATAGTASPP
Assay: 2-AG assay: MAGL inhibitory activity by hydrolysis of 2-arachidonoylglycerol to arachidonic acid, followed by mass spectrometry
Type: biochemical
Conditions: 8 μM 2-arachidonoylglycerol, 15 min preincubation, 30 min reaction at RT, RapidFire MS readout
In short: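 Activity was measured by RapidFire SPE–triple-quad MS as the ratio of arachidonic acid to d8-arachidonic acid after 2-AG hydrolysis (8 μM substrate, 30 min, RT, acetonitrile quench). Compounds, tested from 12.5 μM down to […], were first preincubated 15 min with MAGL in TRIS/EDTA/Tween-20 buffer containing 2.5% DMSO.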

pIC50	Structure (SMILES)
7.10	O=C(N1CC2(CC(c3nc(C4CC4)n[nH]3)C2)C1)N1CC2(CN(Cc3nnnn3CC(F)(F)F)C2)C1 [compound 521]
7.01	O=C(N1CC2(CCC(Cc3ccc(Cl)cn3)CC2)C1)N1CC2(CC(c3nc(C4CC(F)(F)C4)n[nH]3)C2)C1 [compound 756]
8.85	O=C(N1CC2(CC(Cc3nc(C(F)(F)F)c[nH]3)C2)C1)N1CC2(CC(c3nc(C4CC4)n[nH]3)C2)C1 [compound 524]
7.16	N#Cc1cnn(CC2CC3(C2)CN(C(=O)N2CC4(CC(c5nc(C6(O)CC6)n[nH]5)C4)C2)C3)c1 [compound 719]
8.36	O=C(N1CC2(CC(Cc3ncn(CC(F)(F)F)n3)C2)C1)N1CC2(CC(c3nc(C4CC4)n[nH]3)C2)C1 [compound 962]
8.01	N=S(=O)(c1cccc(CC2CC3(C2)CN(C(=O)N2CC4(CC(c5nc(C6CC(F)(F)C6)n[nH]5)C4)C2)C3)c1)C(F)(F)F (stereo not shown) [compound 668]
8.70	N=S(=O)(c1ccc(OC2CC3(C2)CN(C(=O)N2CC4(CC(c5nc(C6CC6)n[nH]5)C4)C2)C3)cc1)C(F)(F)F (stereo not shown) [compound 730]
7.15	O=C(N1CC(NCc2cc(F)ccc2C(F)(F)F)C1)N1CC2(CC(c3nnc(C4CC4)[nH]3)C2)C1 [compound 187]
10.52	COC(=O)c1ccc(CC2CC3(C2)CN(C(=O)N2CC4(CC(c5nc(C6CC6)n[nH]5)C4)C2)C3)cc1OC(F)(F)F [compound 911]
8.10	CS(=O)(=O)c1ccc(C23CC(C4CN(C(=O)N5CC6(CC(c7nc(C8CC8)n[nH]7)C6)C5)C4)(C2)C3)cc1 [compound 786]
8.23	O=C(N1CCC(OCc2ccc(OC(F)(F)F)cc2F)CC1)N1CC2(CC(c3nc(C4CC4)n[nH]3)C2)C1 [compound 905]
10.10	O=C(N1CC(c2ccc(NCC3(C(F)(F)F)CC3)cc2)C1)N1CC2(CC(c3nnc(C4CC4)[nH]3)C2)C1 [compound 257]
7.18	O=C(N1CC2(CC(c3nnc(C4(O)CC4)[nH]3)C2)C1)N1CC2(C1)CN(S(=O)(=O)c1cccc(C(F)(F)F)c1)C2 [compound 100]
7.36	O=C(N1CC2(CC(c3nc(C4CC4)n[nH]3)C2)C1)N1CC2(CN(Cc3nc(CC(F)(F)F)no3)C2)C1 [compound 695]
9.51	O=C(N1CC(C23CC(c4cccc(OC(F)(F)F)c4)(C2)C3)C1)N1CC2(CC(c3nc(C4(O)CC4)n[nH]3)C2)C1 [compound 529]
7.64	Cc1sc(CN2CC3(C2)CN(C(=O)N2CC4(CC(c5nc(C6CC6)n[nH]5)C4)C2)C3)nc1C(F)(F)F [compound 458]
11.00	O=C(N1CC2(CC(Cc3ccc(F)cc3C(F)(F)F)C2)C1)N1CC2(CC(c3nnc(C4(O)CC4)[nH]3)C2)C1 [compound 34]
8.39	O=C(N1CC2(CC(c3nnc(C4CC4)[nH]3)C2)C1)N1CC2(CN(Cc3ccc(F)cc3F)C2)C1 [compound 156]
9.54	N#Cc1cc(CC2CC3(C2)CN(C(=O)N2CC4(CC(c5nc(C6COC6)n[nH]5)C4)C2)C3)ccc1C(F)(F)F [compound 808]
8.41	O=C(N1CC2(CC(Cc3nc(C(F)(F)F)cs3)C2)C1)N1CC2(CC(c3nc(C4(O)CC4)n[nH]3)C2)C1 [compound 536]
7.91	O=C(N1CC(C23CC(c4nnc(C5(C(F)(F)F)CC5)s4)(C2)C3)C1)N1CC2(CC(c3nc(C4CC4)n[nH]3)C2)C1 [compound 557]
8.62	NC(=O)[C@@H]1CCCN1c1ccc(C2CN(C(=O)N3CC4(CC(c5nnc(C6CC6)[nH]5)C4)C3)C2)cc1 [Example 397, (2S)-1-[4-[1-[6-(5-cyclopropyl-4H-1,2,4-triazol-3-yl)-2-azaspiro[3.3]heptane-2-carbonyl]azetidin-3-yl]phenyl]pyrrolidine-2-carboxamide]

pIC50	Structure (SMILES)
5.68	O=C(N1CC2(CC(Cc3ncc(F)cc3F)C2)C1)N1CC2(CC(c3ncn[nH]3)C2)C1 [compound 988]
8.63	CS(=N)(=O)c1cc(F)ccc1CC1CC2(C1)CN(C(=O)N1CC3(CC(c4nc(C5CC5)n[nH]4)C3)C1)C2 (stereo not shown) [Example 735, [6-(3-cyclopropyl-1H-1,2,4-triazol-5-yl)-2-azaspiro[3.3]heptan-2-yl]-[6-[4-fluoro-2-(methylsulfonimidoyl)benzyl]-2-azaspiro[3.3]heptan-2-yl]methanone]
7.55	O=C(N1CC2(CC(c3nnc(C4(O)CC4)[nH]3)C2)C1)N1CC2(C1)CN(S(=O)(=O)c1ccccc1C(F)(F)F)C2 [compound 97]
7.77	O=C(N1CC(N(Cc2ccc(C(F)(F)F)cc2F)CC2CC2)C1)N1CC2(CC(c3nnc(C4CC4)[nH]3)C2)C1 [compound 201]
5.51	Cn1ccc(CN2CC3(C2)CN(C(=O)N2CC4(CC(c5nc(C6CC6)n[nH]5)C4)C2)C3)n1 [Example 902, [6-(3-cyclopropyl-1H-1,2,4-triazol-5-yl)-2-azaspiro[3.3]heptan-2-yl]-[6-[(1-methylpyrazol-3-yl)methyl]-2,6-diazaspiro[3.3]heptan-2-yl]methanone]
9.52	O=C(N1CC2(CCC(Cc3ccc(Cl)cn3)CC2)C1)N1CC2(CC(c3nnc(C4CC4)[nH]3)C2)C1 [compound 138]
6.89	O=C(N1CC(NCc2cc(C(F)(F)F)ccc2F)C1)N1CC2(CC(c3nnc(C4CC4)[nH]3)C2)C1 [compound 195]
8.27	Cc1nc(C(F)F)nn1-c1ccc(C2CN(C(=O)N3CC4(CC(c5nnc(C6CC6)[nH]5)C4)C3)C2)cc1 [compound 534]
7.69	O=C(N1CC(NCc2cc(C(F)(F)F)ccc2Cl)C1)N1CC2(CC(c3nnc(C4CC4)[nH]3)C2)C1 [compound 188]
8.01	Cn1nc(C(F)(F)F)cc1CN1CC2(C1)CN(C(=O)N1CC3(CC(c4nc(C5CC5)n[nH]4)C3)C1)C2 [compound 650]
7.46	COCn1ccnc1-c1ccccc1CN1CC2(C1)CN(C(=O)N1CC3(CC(c4nnc(C5CC5)[nH]4)C3)C1)C2 [compound 175]
9.80	N=[S@@](=O)(c1ccc(CC2CC3(C2)CN(C(=O)N2CC4(CC(c5nnc(C6CC6)[nH]5)C4)C2)C3)cc1)C(F)(F)F (single isomer, unassigned) [compound 128]
7.38	O=C(N1CCC(CNS(=O)(=O)c2ccc(C(F)(F)F)cc2)CC1)N1CC2(CC(c3nnc(C4CC4)[nH]3)C2)C1 [compound 250]
6.26	O=C(N1CC2(CC(Cc3ccc(OC(F)(F)F)cn3)C2)C1)N1CC2(CC(c3ncn[nH]3)C2)C1 [compound 721]
9.21	O=C(N1CC2(CC(Cc3ccc(S(=O)(=O)C(F)(F)F)cc3)C2)C1)N1CC2(CC(c3nc(C4COC4)n[nH]3)C2)C1 [compound 755]
8.43	O=C(N1CC2(CC(Cc3n[nH]c(C(F)(F)F)n3)C2)C1)N1CC2(CC(c3nc(C4CC4)n[nH]3)C2)C1 [compound 494]
8.99	O=C(N1CC(c2ccc(C3CC(C(F)F)C3)cc2)C1)N1CC2(CC(c3nnc(C4(O)CC4)[nH]3)C2)C1 (stereo not shown) [compound 282]
7.96	O=C(N1CC2(CC(c3nnc(C4CC4)[nH]3)C2)C1)N1CC2(C1)CN(S(=O)(=O)NCC1(C(F)(F)F)CC1)C2 [compound 216]
8.26	O=C(N1CC2(CC(Cc3ccc(F)cc3F)C2)C1)N1CC2(CC(c3nc(C4CC(F)(F)C4)n[nH]3)C2)C1 [compound 586]
9.03	O=C(N1CC2(CC(Cc3ncc(C(F)(F)F)cn3)C2)C1)N1CC2(CC(c3nnc(C4CC4)[nH]3)C2)C1 [compound 28]
7.02	O=C(N1CC2(CC(c3nc(C4CC4)n[nH]3)C2)C1)N1CC2(CN(Cc3ccn(CC(F)(F)F)n3)C2)C1 [compound 618]
